Experimental data published in patent publication US9334269B2, “Carboxamides as inhibitors of voltage-gated sodium channels” (AMGEN INC., priority 2010, dated 2016).

Target: T1, human Nav1.7 (hNav1.7) (Homo sapiens, UniProt Q15858)
T1 construct: expressed in transfected cells
Assay: hNav1.7 whole-cell patch-clamp electrophysiology (automated PatchXpress 7000A or manual) in stably expressing 293 cells
Type: cell-based
Conditions: average IC50, human Nav1.7
Experimental: Compounds were tested on human Nav1.7 (hNav1.7) expressed stably in 293 cells, which have no endogenous sodium channels. Two forms of whole-cell patch-clamp assays were used. In both, peak current through Nav1.7 was evoked by a depolarizing voltage pulse, and currents were monitored as a function of time in response to exposure to several different concentrations of drug. Automated electrophysiology uses the PatchXpress 7000A system. Up to sixteen cells at a time were voltage-clamped in parallel, and the steady-state voltage dependence of inactivation was determined experimentally for each cell. For each cell, fractional inactivation was set at 20%, and peak current through Nav1.7 as a function of time was measured in response to increasing concentrations of test compound. Manual electrophysiology refers to conventional whole-cell patch-clamping (Hamill et al., 1981). After formation of the whole-cell clamp, cells were lifted off the bottom of the dish with the patch pipette and positioned directly in front of an array of glass microperfusion tubes each with internal diameter about 250 microns, with individual compound concentrations flowing from each tube. Current as a function of time in response to increasing drug concentrations was measured with Nav1.7 fully in the resting state (holding voltage set to −140 mV) and on the same cells with the holding voltage set to produce about 20% inactivation. Compounds were not applied for a prespecified time, but for as long as required to achieve a stable level of block. For both forms of electrophysiology, offline analysis was used to correct for rundown of channel current and to determine percent inhibition as a function of drug concentration. IC50 were determined by fitting to the Hill equation.

T1 sequence (Q15858 whole entry): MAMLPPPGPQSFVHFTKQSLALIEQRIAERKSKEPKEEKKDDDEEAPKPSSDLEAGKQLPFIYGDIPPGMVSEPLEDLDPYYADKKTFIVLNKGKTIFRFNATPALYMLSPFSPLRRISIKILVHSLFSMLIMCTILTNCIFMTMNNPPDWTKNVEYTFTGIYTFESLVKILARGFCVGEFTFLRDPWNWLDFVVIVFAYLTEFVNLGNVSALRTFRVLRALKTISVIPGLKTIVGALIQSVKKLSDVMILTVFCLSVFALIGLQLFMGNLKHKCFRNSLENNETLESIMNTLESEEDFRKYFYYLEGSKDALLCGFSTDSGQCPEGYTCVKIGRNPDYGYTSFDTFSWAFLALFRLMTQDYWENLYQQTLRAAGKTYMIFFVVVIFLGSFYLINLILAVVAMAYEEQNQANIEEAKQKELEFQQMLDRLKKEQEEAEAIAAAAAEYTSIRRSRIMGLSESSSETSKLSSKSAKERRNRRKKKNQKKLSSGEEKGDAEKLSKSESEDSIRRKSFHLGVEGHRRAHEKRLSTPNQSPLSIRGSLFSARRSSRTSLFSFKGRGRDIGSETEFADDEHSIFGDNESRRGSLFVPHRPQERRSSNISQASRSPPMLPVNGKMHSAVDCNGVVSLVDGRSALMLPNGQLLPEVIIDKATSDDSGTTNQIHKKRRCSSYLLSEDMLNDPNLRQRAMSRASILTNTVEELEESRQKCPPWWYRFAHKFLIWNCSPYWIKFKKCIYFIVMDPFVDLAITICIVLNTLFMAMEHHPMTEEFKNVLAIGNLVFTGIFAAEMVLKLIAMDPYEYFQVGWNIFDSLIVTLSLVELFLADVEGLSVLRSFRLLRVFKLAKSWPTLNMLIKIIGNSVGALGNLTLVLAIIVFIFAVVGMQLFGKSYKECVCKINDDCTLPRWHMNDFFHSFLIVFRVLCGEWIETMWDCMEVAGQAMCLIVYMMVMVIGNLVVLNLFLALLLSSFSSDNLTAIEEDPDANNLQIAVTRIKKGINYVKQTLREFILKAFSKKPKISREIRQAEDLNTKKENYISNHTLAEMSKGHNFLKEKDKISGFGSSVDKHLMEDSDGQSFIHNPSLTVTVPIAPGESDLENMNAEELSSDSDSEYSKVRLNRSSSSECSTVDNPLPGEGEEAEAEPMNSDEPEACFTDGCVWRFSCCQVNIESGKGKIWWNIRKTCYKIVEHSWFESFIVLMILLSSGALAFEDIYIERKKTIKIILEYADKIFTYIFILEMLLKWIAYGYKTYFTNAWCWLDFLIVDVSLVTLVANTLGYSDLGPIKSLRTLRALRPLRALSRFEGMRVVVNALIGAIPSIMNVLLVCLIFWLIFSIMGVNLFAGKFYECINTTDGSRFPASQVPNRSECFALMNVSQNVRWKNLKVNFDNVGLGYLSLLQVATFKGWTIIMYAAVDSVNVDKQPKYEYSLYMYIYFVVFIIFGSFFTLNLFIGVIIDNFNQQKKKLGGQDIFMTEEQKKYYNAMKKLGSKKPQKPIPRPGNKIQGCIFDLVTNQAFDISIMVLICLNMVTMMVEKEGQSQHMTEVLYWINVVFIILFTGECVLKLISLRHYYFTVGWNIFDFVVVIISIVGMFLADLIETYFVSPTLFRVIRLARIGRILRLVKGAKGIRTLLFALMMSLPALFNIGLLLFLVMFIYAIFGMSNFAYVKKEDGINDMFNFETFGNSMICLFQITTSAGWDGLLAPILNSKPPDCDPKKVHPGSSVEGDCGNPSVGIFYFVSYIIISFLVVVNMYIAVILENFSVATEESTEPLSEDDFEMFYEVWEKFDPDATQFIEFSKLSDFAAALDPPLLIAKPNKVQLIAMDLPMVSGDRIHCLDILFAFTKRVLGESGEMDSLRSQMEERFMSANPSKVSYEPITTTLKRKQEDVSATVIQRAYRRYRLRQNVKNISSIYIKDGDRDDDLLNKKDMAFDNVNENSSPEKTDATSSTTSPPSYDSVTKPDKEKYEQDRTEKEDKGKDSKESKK

Question: With `CNC(=O)c1cccc(Nc2ncnc(N3CC(Oc4ccc(C(C)(C)C)cc4)C3)n2)c1` [Example 149] as the compound, how does the IC50 read?
Answer: 2.99 µM

Question: `CNC(=O)c1cccc(Nc2ncnc(N3CCC(OCc4ccc(C(F)(F)F)cc4)CC3)n2)c1` [Example 150] was tested. Which IC50 did it give?
Answer: 3.03 µM

Question: Which IC50 does the source give for `CNC(=O)c1cccc(Nc2ncnc(N3CCC(Cc4ccc(F)c(F)c4)CC3)n2)c1` [Example 151] here?
Answer: 3.1 µM

Question: How did the IC50 turn out when `CNC(=O)c1cccc(Nc2ncnc(NCCCOc3ccc(Cl)cc3)n2)c1` [Example 152] was run?
Answer: 3.1 µM

Question: With `CNC(=O)c1cccc(Nc2ncnc(N3CC(Oc4c(F)cc(Cl)cc4F)C3)n2)c1` [Example 153] as the compound, how does the IC50 read?
Answer: 3.16 µM

Question: With `CNC(=O)c1cccc(Nc2ncnc(N3CC(Oc4cc(C)ccc4F)C3)n2)c1` [Example 155] as the compound, how does the IC50 read?
Answer: 3.17 µM

Question: With `CNC(=O)c1cccc(Nc2ncnc(NCCCOc3ccc(OC(F)(F)F)cc3)n2)c1C` [Example 156] as the compound, how does the IC50 read?
Answer: 3.34 µM

Question: Which IC50 does the source give for `CNC(=O)c1cccc(Nc2ncnc(N3CCN(c4ccc(Cl)cc4)CC3)n2)c1` [Example 157] here?
Answer: 3.36 µM

Question: For `CNC(=O)c1cccc(Nc2ncnc(N3CC(COc4ccc(Cl)c(Cl)c4)C3)n2)c1` [Example 158], which IC50 is on record?
Answer: 3.5 µM

Question: How did the IC50 turn out when `CNC(=O)c1cccc(Nc2ncnc(N3CCN(c4ccc(OC)cc4)CC3)n2)c1` [Example 159] was run?
Answer: 3.5 µM

Question: With `CNC(=O)c1ccc(C)c(Nc2ncnc(N3CC(Oc4ccc(F)cc4)C3)n2)c1` [Example 160] as the compound, how does the IC50 read?
Answer: 3.65 µM

Question: With `CNC(=O)c1c(F)ccc(Nc2ncnc(N3CC(COc4ccc(Cl)cc4)C3)n2)c1F` [Example 161] as the compound, how does the IC50 read?
Answer: 3.67 µM

Question: With `CNC(=O)c1cc(Nc2ncnc(N3CC(Oc4ccc(Cl)cc4)C3)n2)ccc1Cl` [Example 162] as the compound, how does the IC50 read?
Answer: 3.69 µM

Question: With `CNC(=O)c1cccc(Nc2ncnc(N3CC(COc4ccc(F)cc4)C3)n2)c1` [Example 163] as the compound, how does the IC50 read?
Answer: 3.71 µM

Question: For `CNC(=O)c1cc(Nc2ncnc(NCCCOc3cccc(C(F)(F)F)c3)n2)ccc1Cl` [Example 164], which IC50 is on record?
Answer: 3.75 µM

Question: `CNC(=O)c1ccc(F)c(Nc2ncnc(N3CC(Oc4ccc(F)cc4)C3)n2)c1` [Example 165] was tested. Which IC50 did it give?
Answer: 3.82 µM

Question: With `CNC(=O)c1cccc(Nc2ncnc(N3CCC(Oc4ccc(Cl)c(OC(F)(F)F)c4)CC3)n2)c1` [Example 166] as the compound, how does the IC50 read?
Answer: 4.05 µM

Question: `CNC(=O)c1cccc(Nc2ncnc(N3CCC(n4cc(-c5ccc(Cl)cc5)cn4)CC3)n2)c1` [Example 167] was tested. Which IC50 did it give?
Answer: 4.16 µM

Question: `CNC(=O)c1cccc(Nc2ncnc(N3CCC(c4nc(-c5ccccc5)c(C)s4)CC3)n2)c1` [Example 168] was tested. Which IC50 did it give?
Answer: 4.22 µM

Question: `CNC(=O)c1cccc(Nc2ncnc(NCCCOc3ccc(C(F)(F)F)cc3)n2)c1` [Example 169] was tested. Which IC50 did it give?
Answer: 4.25 µM

Question: How did the IC50 turn out when `CNC(=O)c1cccc(Nc2ncnc(N3CCC(c4ccc(C#N)cc4)CC3)n2)c1` [Example 170] was run?
Answer: 4.3 µM

Question: Which IC50 does the source give for `CNC(=O)c1cccc(Nc2ncnc(N3CC(COc4cccc(OC(F)(F)F)c4)C3)n2)c1` [Example 171] here?
Answer: 4.33 µM

Question: `CNC(=O)c1cccc(Nc2ncnc(N3CCN(c4ccccc4OC(F)(F)F)CC3)n2)c1` [Example 172] was tested. Which IC50 did it give?
Answer: 4.45 µM

Question: For `CNC(=O)c1cc(F)cc(Nc2ncnc(N3CC(COc4ccc(Cl)cc4)C3)n2)c1` [Example 173], which IC50 is on record?
Answer: 4.56 µM

Question: Which IC50 does the source give for `O=C(NCC(F)(F)F)c1cccc(Nc2ncnc(N3CC(Oc4ccc(F)cc4)C3)n2)c1` [Example 174] here?
Answer: 4.62 µM

Question: How did the IC50 turn out when `CNC(=O)c1cccc(Nc2ncnc(N3CCC(Oc4ccccn4)CC3)n2)c1` [Example 175] was run?
Answer: 4.63 µM

Question: For `CNC(=O)c1cccc(Nc2ncnc(N3CCc4cc(F)ccc4C3)n2)c1` [Example 176], which IC50 is on record?
Answer: 4.67 µM

Question: For `CNC(=O)c1cccc(Nc2ncnc(N3CC(Oc4cc(F)ccc4F)C3)n2)c1` [Example 177], which IC50 is on record?
Answer: 4.72 µM

Question: `CNC(=O)c1cccc(Nc2ncnc(N3CCN(c4ccccc4C(F)(F)F)CC3)n2)c1` [Example 178] was tested. Which IC50 did it give?
Answer: 4.78 µM

Question: For `CNC(=O)c1cccc(Nc2cc(N3CC(Oc4ccc(F)cc4)C3)ccn2)c1` [Example 179], which IC50 is on record?
Answer: 4.84 µM

Question: `CNC(=O)c1cccc(Nc2ncnc(N3CCN(Cc4ccc(OC(F)(F)F)cc4)CC3)n2)c1` [Example 180] was tested. Which IC50 did it give?
Answer: 4.85 µM

Question: Which IC50 does the source give for `CNC(=O)c1cccc(Nc2ncnc(N3CC(Oc4ccccc4OC(F)(F)F)C3)n2)c1` [Example 181] here?
Answer: 4.93 µM

Question: Which IC50 does the source give for `CNC(=O)c1cccc(Nc2ncnc(N3CC(C)(Oc4ccc(C)cc4)C3)n2)c1` [Example 182] here?
Answer: 5.1 µM
